Measurements from patent publication US10533014B2, “Immunoregulatory agents” (Flexus Biosciences, Inc., priority 2014, dated 2020).

These molecules were tested against T1, human IDO1 (Homo sapiens, UniProt P14902) (assay: IDO inhibition assay in HEK293 cells stably expressing human IDO1 (Example 252)). Conditions: 20 hours incubation, kynurenine by Ehrlich reagent, absorbance at 490 nm, read-out: HEK Human IDO-1 Potency.
T1 construct: expressed in transfected cells
T1 sequence (P14902 whole entry): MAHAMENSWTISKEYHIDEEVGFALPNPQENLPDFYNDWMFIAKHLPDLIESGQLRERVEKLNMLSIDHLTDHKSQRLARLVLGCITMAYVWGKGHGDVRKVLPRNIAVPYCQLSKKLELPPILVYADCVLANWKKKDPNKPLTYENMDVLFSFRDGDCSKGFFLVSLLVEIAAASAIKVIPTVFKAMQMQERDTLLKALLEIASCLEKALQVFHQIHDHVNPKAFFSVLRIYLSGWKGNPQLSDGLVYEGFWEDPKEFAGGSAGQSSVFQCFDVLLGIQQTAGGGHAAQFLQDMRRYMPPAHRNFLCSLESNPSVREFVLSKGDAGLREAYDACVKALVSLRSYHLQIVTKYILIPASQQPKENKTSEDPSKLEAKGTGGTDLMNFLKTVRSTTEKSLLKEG
Format: cell-based
Method: 1HEK293 cells were transfected with a pCDNA-based mammalian expression vector harboring human IDO1 cDNA (NM 002164.2) by electroporation. They were cultured in medium (DMEM with 10% FBS) containing 1 mg/ml G418 for two weeks. Clones of HEK293 cells that stably expressed human IDO1 protein were selected and expanded for IDO inhibition assay.
The human IDO1/HEK293 cells were seeded at 10,000 cells per 50 μL per well with RPMI/phenol red free media contains 10% FBS in a 384-well black wall clear bottom tissue culture plate (Matrix Technologies LLC) 100 nL of certain concentration of compound was then added to each well using ECHO liquid handling systems. The cells were incubated for 20 hours in 37° C. incubator with 5% CO2.
The compound treatments were stopped by adding Trichloroacetic Acid (Sigma-Aldrich) to a final concentration at 0.2%. The cell plate was further incubated at 50° C. for 30 minute. The equal volume supernatant (20 μL) and 0.2% (w/v) Ehrlich reagent (4-dimethylaminobenzaldehyde, Sigma-Aldrich) in glacial acetic acid were mixed in a new clear bottom 384-well plate. This plate was then incubated at room temperature for 30 minute. The absorbance at 490 nm was measured on Envision plate reader.
In the case of `CC(C(=O)Nc1ccc(Cl)cc1)C1CCC(c2ccnc3c2ncn3C)CC1` (mixture of isomers) [Example 250, (+/−)-Cis and trans-N-(4-chlorophenyl)-2-(4-(3-methyl-3H-imidazo[4,5-b]pyridin-7-yl)cyclohexyl)propanamide], the IC50 is reported as less than 250 nM. `C[C@@H](C(=O)Nc1cccc(C(F)F)c1)[C@H]1CC[C@@H](c2ccnc3ccc(F)cc32)CC1` (relative stereo) [Example 63, (R)-N-(3-(difluoromethyl)phenyl)-2-((cis)-4-(6-fluoroquinolin-4-yl)cyclohexyl)propanamide] was tested, and the IC50 was less than 50 nM. `C[C@@H](C(=O)NC1CCCCC1)[C@H]1CC[C@@H](c2ccnc3ccc(F)cc32)CC1` (relative stereo) [Example 141, (R)-N-cyclohexyl-2-((cis)-4-(6-fluoroquinolin-4-yl)cyclohexyl) propanamide] gave an IC50 of less than 50 nM. `CC(C(=O)O)c1ccc(C[C@@H](C(=O)Nc2ccc(Cl)cc2)[C@H]2CC[C@@H](c3ccnc4ccccc43)CC2)cc1` (single isomer, unassigned) [Example 87b] was tested, and the IC50 was less than 50 nM. With `COCC(C(=O)Nc1ccc(Cl)cc1)N1CCN(c2ccnc3ccc(F)cc23)CC1` (single isomer, unassigned) [Example 136, N-(4-chlorophenyl)-2-(4-(6-fluoroquinolin-4-yl)piperazin-1-yl)-3-methoxypropanamide] the IC50 was greater than 250 nM. Molecule `CC(C(=O)O)c1ccc(C[C@@H](C(=O)Nc2ccc(Cl)cc2)[C@H]2CC[C@@H](c3ccnc4ccc(F)cc43)CC2)cc1` (single isomer, unassigned) [Example 139] has an IC50 of less than 50 nM. Molecule `O=C(C[C@H]1CC[C@@H](c2ccnc3ccc(F)cc32)CC1)NC1CCCCC1` [Example 142, N-cyclohexyl-2-((cis)-4-(6-fluoroquinolin-4-yl)cyclohexyl) acetamide] has an IC50 of less than 250 nM. “N-(4-chlorophenyl)-2-(cis-4-(6-fluoroquinolin-4-yl)-1-hydroxycyclohexyl)propanamide [Example 231]” showed an IC50 of less than 250 nM. In the case of “N-(4-chlorophenyl)-2-(cis-4-(6-fluoroquinolin-4-yl)-1-hydroxycyclohexyl)propanamide [Example 232]”, the IC50 is reported as less than 50 nM. “N-(4-chlorophenyl)-2-(trans-4-(6-fluoroquinolin-4-yl)-1-hydroxycyclohexyl)propanamide [Example 229]” gave an IC50 of less than 50 nM. “N-(4-chlorophenyl)-2-(trans-4-(6-fluoroquinolin-4-yl)-1-hydroxycyclohexyl)propanamide [Example 230]” showed an IC50 of less than 250 nM.
